Measured values: PubChem BioAssay (NCI)
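Grown in 96-well plates, cells were treated for 48 hours with each compound at five concentrations. Insufficient inhibition: endpoint recorded as highest concentration tested. TGI denotes the concentration required for complete inhibition of growth.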

Assays:
Experiment in all cases: NCI-60 cell line screen, 48 h
EKVX NSCLC = system: EKVX NSCLC
OVCAR-8 ovarian = system: OVCAR-8 ovarian
UO-31 renal = system: UO-31 renal
HT29 colon = system: HT29 colon
COLO 205 colon = system: COLO 205 colon
ACHN renal = system: ACHN renal
SN12C renal = system: SN12C renal
HCT-15 colon = system: HCT-15 colon
HL-60(TB) leukemia = system: HL-60(TB) leukemia
SR leukemia = system: SR leukemia
NCI-H460 lung = system: NCI-H460 lung
CAKI-1 renal = system: CAKI-1 renal
HCC-2998 colon = system: HCC-2998 colon
M14 melanoma = system: M14 melanoma
BT-549 breast = system: BT-549 breast
RXF 393 renal = system: RXF 393 renal
MALME-3M melanoma = system: MALME-3M melanoma
T-47D breast = system: T-47D breast
HS 578T breast = system: HS 578T breast
SF-268 CNS = system: SF-268 CNS

SMILES	TGI (EKVX NSCLC) [µM]	TGI (OVCAR-8 ovarian) [µM]	TGI (UO-31 renal) [µM]	TGI (HT29 colon) [µM]	TGI (COLO 205 colon) [µM]	TGI (ACHN renal) [µM]	TGI (SN12C renal) [µM]	TGI (HCT-15 colon) [µM]	TGI (HL-60(TB) leukemia) [µM]	TGI (SR leukemia) [µM]	TGI (NCI-H460 lung) [µM]	TGI (CAKI-1 renal) [µM]	TGI (HCC-2998 colon) [µM]	TGI (M14 melanoma) [µM]	TGI (BT-549 breast) [µM]	TGI (RXF 393 renal) [µM]	TGI (MALME-3M melanoma) [µM]	TGI (T-47D breast) [µM]	TGI (HS 578T breast) [µM]	TGI (SF-268 CNS) [µM]
CCOC(=O)CC[C@H](NC(=O)N[C@H](C)c1ccccc1)C(=O)OCC	> 100	> 100	> 100	> 100	32.7	> 100	> 100	> 100	> 100	> 100	> 100	> 100	72.3	28.2	> 100					
O=C(O)CC(NC(=O)/C(=C/c1ccccc1)NC(=O)c1ccccc1)C(=O)O (stereo not drawn)	> 100	> 100	> 100	> 100	> 100	> 100	> 100	> 100	> 100		> 100	> 100	> 100	> 100	> 100	> 100	> 100	> 100	> 100	> 100
C/C=C/C=C\C=C/C(O)C(C)C(CCC(C)C1OC(=O)C=CC1C)OP(=O)(O)O (stereo not drawn)	1.54	1.26	0.93	1.08	0.788	1.26	1.11	1.97	0.17	0.511	1.76	0.314		0.685	0.591	1.38	0.641	1.46	4.28	2.03
C/C=C(/C)C(=O)O[C@H]1[C@H]2[C@@H]([C@@H](OC(C)=O)[C@H](C)C(=O)[C@@]34C[C@@H](C)C(=O)[C@]3(/C=C(\C)[C@H]1OC(C)=O)O4)C2(C)C	17.1	6.54	16		5.32	7.05	5.33	5.77	2.13	7.34	> 20	10	8.53	5.22	5.84	6.75		5.74	19.7	> 20
CC(=O)NC(Cc1ccccc1)NC(=O)O (stereo not drawn)	> 100	> 100	> 100	> 100	> 100	> 100	> 100	> 100	> 100	> 100	> 100	> 100	> 100	> 100	> 100	> 100	> 100	> 100		> 100
COc1cc2cc(C(=O)N3CC(CCl)c4ccc([N+](=O)[O-])cc43)[nH]c2c(OC)c1OC (stereo not drawn)	67.2	> 100	> 100	36.7	> 100	> 100	> 100	> 100	> 100			> 100	> 100	> 100	> 100	> 100	> 100	> 100	> 100	> 100
